Measured values taken from ChEMBL document CHEMBL1125524, “Adenosine A1 antagonists. 2. Structure-activity relationships on diuretic activities and protective effects against acute renal failure” (J Med Chem, 1992).

Tests used:
[1] = test system: Rattus norvegicus; assay: Serum creatinine concentration measured after intraperitoneal administration of 10 mg/kg of compound to rats(vehicle 2.89+/-0.30); type: functional
[2] = test system: Rattus norvegicus; assay: Ratio of urinary excretion value (Na+ concentration) in treated rats to that in control rats, at a peroral dose of 6.25 mg/Kg; type: functional, Urine
[3] = test system: Rattus norvegicus; assay: Ratio of sodium ion/potassium ion concentration in treated rats to that in control rats, at a peroral dose of 12.5 mg/Kg; type: functional
[4] = biological target: T1, Adenosine A2 receptor (Rattus norvegicus, UniProt P29276+P30543)
Description: Binding affinity towards adenosine A2 receptor in rat striatal membranes using N-[3H]-ethyladenosin-5''-uronamide as radioligand

[5] = biological target: T1, Adenosine A2 receptor; remark: listed apart in the source
[6] = test system: Rattus norvegicus; assay: Oral diuretic activity was measured after oral administration of 12.5 mg/kg to rats(control volume is 0.94+/-0.03); type: functional, Urine
[7] = test system: Rattus norvegicus; assay: Percent inhibition of serum creatinine by the compound given as ratio of Cr value in treated to vehicle treated ones after intraperitoneal administration of 10 mg/kg of compound to rats(vehicle 2.89+/-0.30); type: functional; conditions: ip
[8] = test system: Rattus norvegicus; assay: Ratio of urinary excretion value (urinary volume) in treated rats to that in control rats, at a peroral dose of 12.5 mg/Kg; type: functional, Urine
[9] = test system: Rattus norvegicus; assay: Ratio of urinary excretion value (Na+ concentration) in treated rats to that in control rats, at a peroral dose of 12.5 mg/Kg; type: functional, Urine
[10] = test system: Rattus norvegicus; assay: Urea nitrogen concentration measured after intraperitoneal administration of 10 mg/kg of compound to rats(vehicle 93.6+/-8.6); type: functional
[11] = test system: Rattus norvegicus; assay: Effect on urinary excretion potassium and sodium after oral administration of 12.5 mg/kg to rats(potassium and sodium excretion in control rat is 0.175+/-0.014); type: functional, Urine
[12] = test system: Rattus norvegicus; assay: Percent inhibition of Urea nitrogen by the compound given as ratio of UN value in treated to vehicle treated ones after intraperitoneal administration of 10 mg/kg of compound to rats(vehicle 93.6+/-8.6); type: functional; conditions: ip
[13] = test system: Rattus norvegicus; assay: Ratio of urinary excretion value (urinary volume) in treated rats to that in control rats, at a peroral dose of 6.25 mg/Kg; type: functional, Urine
[14] = test system: Rattus norvegicus; assay: Ratio of urinary excretion value (urinary volume) in treated rats to that in control rats, at a peroral dose of 1.6 mg/Kg; type: functional, Urine
[15] = test system: Rattus norvegicus; assay: Ratio of sodium ion/potassium ion concentration in treated rats to that in control rats, at a peroral dose of 1.6 mg/Kg; type: functional
[16] = test system: Rattus norvegicus; assay: Effect on urinary excretion potassium and sodium after oral administration of 1.6 mg/kg to rats(potassium and sodium excretion in control rat is 0.147+/-0.015); type: functional, Urine
[17] = test system: Rattus norvegicus; assay: Serum creatinine concentration measured after intraperitoneal administration of 1 mg/kg of compound to rats(vehicle 3.62+/-0.52); type: functional
[18] = test system: Rattus norvegicus; assay: Percent inhibition of serum creatinine by the compound given as ratio of Cr value in treated to vehicle treated ones after intraperitoneal administration of 10 mg/kg of compound to rats(vehicle 3.93+/-0.45); type: functional; conditions: ip
[19] = test system: Rattus norvegicus; assay: Oral diuretic activity was measured after oral administration of 0.4 mg/kg to rats(control volume is 1.15+/-0.17); type: functional, Urine
[20] = test system: Rattus norvegicus; assay: Percent inhibition of serum creatinine by the compound given as ratio of Cr value in treated to vehicle treated ones after intraperitoneal administration of 1 mg/kg of compound to rats(vehicle 3.62+/-0.52); type: functional; conditions: ip
[21] = test system: Rattus norvegicus; assay: Percent inhibition of Urea nitrogen by the compound given as ratio of UN value in treated to vehicle treated ones after intraperitoneal administration of 1 mg/kg of compound to rats(vehicle 105.2+/-14.9); type: functional; conditions: ip
[22] = test system: Rattus norvegicus; assay: Effect on urinary excretion potassium and sodium after oral administration of 0.4 mg/kg to rats(potassium and sodium excretion in control rat is 0.191+/-0.020); type: functional, Urine
[23] = test system: Rattus norvegicus; assay: Oral diuretic activity was measured after oral administration of 1.6 mg/kg to rats(control volume is 0.96+/-0.09); type: functional, Urine
[24] = test system: Rattus norvegicus; assay: Ratio of sodium ion/potassium ion concentration in treated rats to that in control rats, at a peroral dose of 0.4 mg/Kg; type: functional
[25] = test system: Rattus norvegicus; assay: Percent inhibition of Urea nitrogen by the compound given as ratio of UN value in treated to vehicle treated ones after intraperitoneal administration of 10 mg/kg of compound to rats(vehicle 129.1+/-14.5); type: functional; conditions: ip
[26] = test system: Rattus norvegicus; assay: Urea nitrogen concentration measured after intraperitoneal administration of 10 mg/kg of compound to rats(vehicle 129.1+/-14.5); type: functional
[27] = test system: Rattus norvegicus; assay: Ratio of urinary excretion value (urinary volume) in treated rats to that in control rats, at a peroral dose of 0.4 mg/Kg; type: functional, Urine
[28] = test system: Rattus norvegicus; assay: Serum creatinine concentration measured after intraperitoneal administration of 10 mg/kg of compound to rats(vehicle 3.93+/-0.45); type: functional
[29] = test system: Rattus norvegicus; assay: Urea nitrogen concentration measured after intraperitoneal administration of 1 mg/kg of compound to rats(vehicle 105.2+/-14.9); type: functional
[30] = test system: Rattus norvegicus; assay: Ratio of urinary excretion value (Na+ concentration) in treated rats to that in control rats, at a peroral dose of 0.4 mg/Kg; type: functional, Urine
[31] = test system: Rattus norvegicus; assay: Ratio of urinary excretion value (Na+ concentration) in treated rats to that in control rats, at a peroral dose of 1.6 mg/Kg; type: functional, Urine
[32] = test system: Rattus norvegicus; assay: Percent inhibition of serum creatinine by the compound given as ratio of Cr value in treated to vehicle treated ones after intraperitoneal administration of 10 mg/kg of compound to rats(vehicle 4.98+/-0.08); type: functional; conditions: ip
[33] = test system: Rattus norvegicus; assay: Percent inhibition of Urea nitrogen by the compound given as ratio of UN value in treated to vehicle treated ones after intraperitoneal administration of 10 mg/kg of compound to rats(vehicle 150.7+/-3.4); type: functional; conditions: ip
[34] = test system: Rattus norvegicus; assay: Oral diuretic activity was measured after oral administration of 25 mg/kg to rats(control volume is 0.89+/-0.06); type: functional, Urine
[35] = test system: Rattus norvegicus; assay: Serum creatinine concentration measured after intraperitoneal administration of 10 mg/kg of compound to rats(vehicle 4.98+/-0.08); type: functional
[36] = test system: Rattus norvegicus; assay: Ratio of sodium ion/potassium ion concentration in treated rats to that in control rats, at a peroral dose of 25 mg/Kg; type: functional
[37] = test system: Rattus norvegicus; assay: Ratio of urinary excretion value (Na+ concentration) in treated rats to that in control rats, at a peroral dose of 25 mg/Kg; type: functional, Urine
[38] = test system: Rattus norvegicus; assay: Ratio of urinary excretion value (urinary volume) in treated rats to that in control rats, at a peroral dose of 25 mg/Kg; type: functional, Urine
[39] = test system: Rattus norvegicus; assay: Effect on urinary excretion potassium and sodium after oral administration of 25 mg/kg to rats(potassium and sodium excretion in control rat is […]+/-[…]); type: functional, Urine
[40] = biological target: T2, Adenosine receptor A1 (Cavia porcellus, UniProt P47745)
T2 sequence (P47745 whole entry): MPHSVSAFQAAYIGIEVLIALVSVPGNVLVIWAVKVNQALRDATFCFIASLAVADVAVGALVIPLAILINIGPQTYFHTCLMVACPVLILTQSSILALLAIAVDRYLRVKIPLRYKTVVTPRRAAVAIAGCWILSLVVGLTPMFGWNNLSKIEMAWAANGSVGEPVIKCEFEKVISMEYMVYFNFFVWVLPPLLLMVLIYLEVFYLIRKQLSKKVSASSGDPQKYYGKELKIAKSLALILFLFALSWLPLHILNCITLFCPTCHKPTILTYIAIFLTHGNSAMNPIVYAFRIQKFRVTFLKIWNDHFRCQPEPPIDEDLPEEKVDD
Description: Binding affinity against adenosine A1 receptor in guinea pig forebrain membranes using N6-[3H]cyclohexyladenosine as radioligand

[41] = test system: Rattus norvegicus; assay: Urea nitrogen concentration measured after intraperitoneal administration of 10 mg/kg of compound to rats(vehicle 150.7+/-3.4); type: functional

In the case of CCCn1c(=O)c2nc(-c3ccc(S(=O)(=O)N(C)CCN(C)C)cc3)[nH]c2n(CCC)c1=O, the Cr [1] is reported as 2.31 mg/dL, the T/C [2] is reported as 1.06 and the “Na+/K+” value [3] is reported as 1.56. For the same compound, the Ki [4] was 15.5 nM, the Ki [5] was 26 nM and the Urine volume [6] was 1.54 ml 6hr-1 100g-1. For the same compound, the inhibition in vivo at 10 mg/kg [7] was 20%, the T/C [8] was 1.64 and the T/C [9] was 1.78. It also gave a UN [10] of 62.6 mg/dL, a Na [11] of 0.21 m equiv 6hr-1 100g-1 and an inhibition in vivo at 10 mg/kg [12] of 33%. The T/C [13] was 1.17.

In the case of CCCCn1c(=O)c2nc(C(C3CC3)C3CC3)[nH]c2n(CCCC)c1=O, the T/C [14] is reported as 1.66, the “Na+/K+” value [15] is reported as 1.66 and the Na [16] is reported as 0.282 m equiv 6hr-1 100g-1. The Cr [17] was 3.63 mg/dL, the inhibition in vivo at 10 mg/kg [18] was 41% and the Ki [5] was 440 nM. It also gave a Urine volume [19] of 1.24 ml 6hr-1 100g-1, an inhibition in vivo at 1 mg/kg [20] of 0% and an inhibition in vivo at 1 mg/kg [21] of 4%. The Na [22] was 0.276 m equiv 6hr-1 100g-1, the Urine volume [23] was 1.59 ml 6hr-1 100g-1 and the “Na+/K+” value [24] was 1.45. It also gave an inhibition in vivo at 10 mg/kg [25] of 37%, a UN [26] of 81.1 mg/dL and a T/C [27] of 1.08. For the same compound, the Cr [28] was 2.3 mg/dL, the UN [29] was 101.1 mg/dL and the T/C [30] was 1.44. The T/C [31] was 1.91.

With CCCn1c(=O)c2c(nc(C(C3CC3)C3CC3)n2CC(=O)O)n(CCC)c1=O the inhibition in vivo at 10 mg/kg [32] was 4%, the inhibition in vivo at 10 mg/kg [33] was 3% and the Ki [5] was over 100000 nM. For the same compound, the Urine volume [34] was 1.02 ml 6hr-1 100g-1, the Cr [35] was 4.79 mg/dL and the “Na+/K+” value [36] was 0.95. It also gave a T/C [37] of 1.14, a T/C [38] of 1.15 and a Na [39] of 0.185 m equiv 6hr-1 100g-1. It also gave a Ki [40] of 6900 nM and a UN [41] of 145.5 mg/dL.

For Cn1c(=O)c2nc(C(C3CC3)C3CC3)[nH]c2n(C)c1=O, the T/C [14] was 0.91, the “Na+/K+” value [15] was 1.18 and the Na [16] was 0.183 m equiv 6hr-1 100g-1. It also gave a Cr [17] of 4.1 mg/dL, a Ki [5] of 2700 nM and a Urine volume [23] of 0.87 ml 6hr-1 100g-1. For the same compound, the UN [26] was 57.2 mg/dL, the Cr [28] was 1.78 mg/dL and the UN [29] was 121.4 mg/dL. The T/C [31] was 1.24.
